Experimental data: US9796742B2, “Kinase inhibitors” (Respivert Limited, priority 2012, dated 2017)
Read-outs that look alike come from different tables or passages of the source.

Columns and labels:
d-U937 cells = test: LPS-induced TNFα/IL-8 release in d-U937 cells; assay type: cell-based; conditions: Homo sapiens, dU937, LPS-stimulated d-U937 cells
Description: U937 cells, a human monocytic cell line, are differentiated to macrophage-type cells by incubation with phorbol myristate acetate (PMA; 100 ng/mL) for 48 to 72 hr. Cells are pre-incubated with final concentrations of test compound for 2 hr and are then stimulated with 0.1 μg/mL of LPS (from E. Coli: O111:B4, Sigma) for 4 hr. The supernatant is collected for determination of TNFα and IL-8 concentrations by sandwich ELISA (Duo-set, R&D systems). The inhibition of TNFα production is calculated as a percentage of that achieved by 10 μg/mL of BIRB796 at each concentration of test compound by comparison against vehicle control. The relative 50% effective concentration (REC50) is determined from the resultant concentration-response curve. The inhibition of IL-8 production is calculated at each concentration of test compound by comparison with vehicle control. The 50% inhibitory concentration (IC50) is determined from the resultant concentration-response curve.

GSK3α = GSK3α (Homo sapiens (Human), UniProt P49840); test: GSK 3α enzyme inhibition (FRET, Z-LYTE; Method 2); assay type: biochemical
Procedure, shortened: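 GSK3-α protein preincubated with compound for 105 min, then Z-LYTE FRET peptide and ATP added for 1 h before protease development for 1 h. Phosphorylation taken from coumarin/fluorescein emission ratio; percent inhibition against uninhibited control and IC50 calculated from concentration-response curves.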

c-Src = c-Src (Homo sapiens (Human), UniProt P12931); test: c-Src enzyme inhibition (FRET, Z-LYTE); assay type: biochemical
Procedure, shortened: (§1)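 Z-LYTE FRET peptide assay with enzyme preincubated with compound for 2 h at RT, then 1 h kinase reaction and 1 h protease development. ATP solutions were 800 μM for c-Src and 60 μM for Syk. Inhibition was taken from the coumarin/fluorescein emission ratio, and IC50 from concentration-response curves.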

HT29 cells = test: IL-1β-induced IL-8 release in HT29 cells; assay type: cell-based; conditions: Homo sapiens, HT-29, IL-1β-stimulated HT29 cells, read-out: IC50 Values for Inhibition of Cytokine Release, HT29 cells IL-8
Description: HT29 cells, a human colon adenocarcinorna cell line, are plated in a 96 well plate (24 hrs) and pre-treated with compounds at the desired concentration for 2 hours before addition of 5 ng/mL of IL-1β (Abcam) for 24 hours. Supernatants are harvested for IL-8 quantification by Sandwich ELISA (Duo-set, R&D System). The IC50 is determined from the dose response curve.

Syk = Syk (Homo sapiens (Human), UniProt P43405); test: Syk enzyme inhibition (FRET, Z-LYTE); assay type: biochemical
Procedure, shortened: as §1

[1] = test system: intestinal mucosa biopsies from ulcerative colitis patients; test: Human biopsy assay (ex-vivo cytokine release); assay type: cell-based
Description: Intestinal mucosa biopsies are obtained from the inflamed regions of the colon of IBD patients. The biopsy material is cut into small pieces (2-3 mm) and placed on steel grids in an organ culture chamber at 37° C. in a 5% CO2/95% O2 atmosphere in serum-free media. DMSO control or test compounds at the desired concentration are added to the tissue and incubated for 24 hr in the organ culture chamber. The supernatant is harvested for determination of IL-6, IL-8, IL-1β and TNFα levels by R&D ELISA. Percentage inhibition of cytokine release by the test compounds is calculated relative to the cytokine release determined for the DMSO control (100%).

p38 MAPKα = p38 MAPKα (Homo sapiens (Human), UniProt Q16539); test: p38 MAPKα enzyme inhibition (FRET, Z-LYTE; Method 2); assay type: biochemical
Procedure, shortened: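 p38 MAPKα (2.5 μL of 200 ng/mL stock) preincubated 2 h at RT with compound, then kinase reaction 1 h at RT with readout via MAPKAP-K2 activation using a Z-LYTE FRET peptide. Protease development 1 h; coumarin/fluorescein emission ratio gives phosphorylation. % inhibition versus uninhibited control; IC50 from concentration-response curve.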

[2] = 1 μg/ml, 24 hours, DMSO control 100%

Chain of GSK3α (P49840 whole entry): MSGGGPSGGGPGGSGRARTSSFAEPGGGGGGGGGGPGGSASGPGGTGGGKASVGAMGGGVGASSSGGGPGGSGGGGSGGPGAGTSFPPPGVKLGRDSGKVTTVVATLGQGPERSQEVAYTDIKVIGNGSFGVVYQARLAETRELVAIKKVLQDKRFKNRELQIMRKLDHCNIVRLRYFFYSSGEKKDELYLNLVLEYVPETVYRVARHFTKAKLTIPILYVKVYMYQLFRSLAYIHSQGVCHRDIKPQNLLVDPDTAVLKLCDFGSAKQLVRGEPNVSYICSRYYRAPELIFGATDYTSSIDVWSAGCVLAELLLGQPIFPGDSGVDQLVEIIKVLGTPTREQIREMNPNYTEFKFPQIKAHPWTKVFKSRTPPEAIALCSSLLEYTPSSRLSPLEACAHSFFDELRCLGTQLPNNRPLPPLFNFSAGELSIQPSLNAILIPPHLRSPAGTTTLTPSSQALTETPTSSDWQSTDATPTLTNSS
Chain of c-Src (P12931 whole entry, looked up): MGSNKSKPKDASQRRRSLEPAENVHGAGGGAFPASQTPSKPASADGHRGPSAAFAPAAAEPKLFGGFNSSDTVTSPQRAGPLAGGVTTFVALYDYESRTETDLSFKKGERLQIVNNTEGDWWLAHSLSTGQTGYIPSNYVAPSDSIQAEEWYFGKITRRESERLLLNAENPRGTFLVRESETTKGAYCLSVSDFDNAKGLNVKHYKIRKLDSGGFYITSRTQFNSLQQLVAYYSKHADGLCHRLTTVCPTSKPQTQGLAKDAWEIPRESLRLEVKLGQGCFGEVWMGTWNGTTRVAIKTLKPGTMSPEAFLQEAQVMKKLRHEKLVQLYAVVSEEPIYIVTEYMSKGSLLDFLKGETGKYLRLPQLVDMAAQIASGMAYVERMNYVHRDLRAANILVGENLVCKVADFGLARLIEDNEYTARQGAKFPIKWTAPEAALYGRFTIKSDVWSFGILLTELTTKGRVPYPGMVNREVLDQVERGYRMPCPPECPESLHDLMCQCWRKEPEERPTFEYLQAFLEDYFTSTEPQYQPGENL
Chain of p38 MAPKα (Q16539 whole entry): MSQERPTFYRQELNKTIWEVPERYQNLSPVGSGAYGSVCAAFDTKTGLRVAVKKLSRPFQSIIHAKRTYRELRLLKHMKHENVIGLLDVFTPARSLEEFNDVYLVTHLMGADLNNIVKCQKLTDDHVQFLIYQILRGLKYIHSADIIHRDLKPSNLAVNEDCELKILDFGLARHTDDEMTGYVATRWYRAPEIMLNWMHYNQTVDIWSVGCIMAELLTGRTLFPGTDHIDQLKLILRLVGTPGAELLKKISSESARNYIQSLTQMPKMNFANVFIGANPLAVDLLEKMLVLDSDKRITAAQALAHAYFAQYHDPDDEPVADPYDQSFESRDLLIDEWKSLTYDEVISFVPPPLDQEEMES

- IC50 (d-U937 cells; IL-8, read-out: IC50 Values for Inhibition of Cytokine Release, dU937 cells IL-8): 0.4 nM
- IC50 (d-U937 cells; TNFα (REC50 relative to BIRB796 per method), read-out: IC50 Values for Inhibition of Cytokine Release, dU937 cells TNFα): 0.2 nM
- IC50 (GSK3α): 1100 nM
- IC50 (c-Src): 2 nM
- IC50 (HT29 cells): 0.8 nM
- IC50 (Syk): 8 nM
- IC50 (p38 MAPKα): 71 nM
SMILES: COCCOCCOCCOc1cc(Nc2nccc(Oc3ccc(NC(=O)Nc4cc(C(C)(C)C)nn4-c4cccc(CP(C)(C)=O)c4)c4ccccc34)n2)cc(OC)c1 [Example 60, 1-(3-(tert-Butyl)-1-(3-((dimethylphosphoryl)methyl)phenyl)-1H-pyrazol-5-yl)-3-(4-((2-((3-methoxy-5-(2-(2-(2-methoxyethoxy)ethoxy)ethoxy)phenyl)amino)pyrimidin-4-yl)oxy)-naphthalen-1-yl)urea]
- cytokine (IL-1b, IL-6 and IL-8) release compared to the DMSO control ([1]; 1 μg/mL, 24 hours, biopsies from ulcerative colitis patients): significantly inhibited
- IL-1b release from biopsies of UC patients [1, 2]: 1 ± 2%
- IL-6 release from biopsies of UC patients [1, 2]: 0 ± 0%
- IL-8 release from biopsies of UC patients [1, 2]: 2 ± 4%
- anti-inflammatory effects in biopsies from ulcerative colitis (UC) patients ([1]; ex-vivo human biopsy model): significant anti-inflammatory effects
